The values below come from ChEMBL document CHEMBL4368854, “Assessment of a bifendate derivative bearing a 6,7-dihydro-dibenzo[c,e]azepine scaffold as a potential anti-metastatic agent” (Medchemcomm, 2018).

For assay [1], the system named is MDA-MB-231. In words: Antimigratory activity against human MDA-MB-231 cells assessed as reduction in cell migration towards wound area at 45 uM measured up to 24 hrs by inverted microscopic analysis. Type of assay: functional, cell-based.
The test system of assay [2] is MDA-MB-231. In words: Cytotoxicity against human MDA-MB-231 cells after 72 hrs by MTT assay. Type of assay: functional, cell-based. The conditions noted are these: MDA-MB-231, 72 h. For orientation: Tetrazolium dyes change colour on reduction, which living cells bring about.
Assay [3] has as its system MDA-MB-231. In words: Antimigratory activity against human MDA-MB-231 cells assessed as reduction in cell migration towards wound area at 5 to 45 uM measured up to 24 hrs by inverted microscopic analysis. The class given is functional, cell-based.
Assay [4] has as its system MDA-MB-231. In words: Antimigratory activity against human MDA-MB-231 cells at 15 uM after 24 hrs by crystal violet staining based transwell assay relative to control. Type of assay: functional.
The test system of assay [5] is MDA-MB-231. Description: Antimigratory activity against human MDA-MB-231 cells at 45 uM after 24 hrs by crystal violet staining based transwell assay relative to control. Type of assay: functional.
In assay [6] the test system is MDA-MB-231. In words: Anti-invasive activity against human MDA-MB-231 cells at 15 uM after 24 hrs by crystal violet staining based matrigel coated transwell assay relative to control. The class given is functional.
Assay [7] concerns MDA-MB-231. Description: Anti-invasive activity against human MDA-MB-231 cells at 45 uM after 24 hrs by crystal violet staining based matrigel coated transwell assay relative to control. Type of assay: functional.
Assay [8] deals with 72 kDa type IV collagenase (Homo sapiens) (UniProt P08253). In words: Inhibition of MMP2 activity in human MDA-MB-231 cells measured after 24 hrs by coomassie brilliant blue staining based gelatin zymographic method. Type of assay: cell-based.
Chain of 72 kDa type IV collagenase (Homo sapiens) (P08253 110-660 limits assumed): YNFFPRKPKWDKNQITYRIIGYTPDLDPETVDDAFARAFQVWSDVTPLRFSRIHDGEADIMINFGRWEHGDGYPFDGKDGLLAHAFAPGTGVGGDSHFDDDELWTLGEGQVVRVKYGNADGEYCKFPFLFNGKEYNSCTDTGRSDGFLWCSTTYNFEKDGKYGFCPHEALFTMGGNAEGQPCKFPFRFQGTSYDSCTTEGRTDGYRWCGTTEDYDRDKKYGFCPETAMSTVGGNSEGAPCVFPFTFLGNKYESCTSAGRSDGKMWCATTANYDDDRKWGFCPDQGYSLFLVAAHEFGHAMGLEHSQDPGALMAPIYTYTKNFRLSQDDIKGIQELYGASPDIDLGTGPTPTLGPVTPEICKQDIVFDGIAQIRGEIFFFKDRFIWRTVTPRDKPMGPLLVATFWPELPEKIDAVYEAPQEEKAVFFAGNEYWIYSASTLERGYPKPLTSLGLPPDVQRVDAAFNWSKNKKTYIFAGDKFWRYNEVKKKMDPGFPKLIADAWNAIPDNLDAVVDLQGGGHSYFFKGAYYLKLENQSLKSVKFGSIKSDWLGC
In assay [9] the target is Matrix metalloproteinase-9 (Homo sapiens) (UniProt P14780). In words: Inhibition of MMP9 activity in human MDA-MB-231 cells measured after 24 hrs by coomassie brilliant blue staining based gelatin zymographic method. The class given is cell-based.
Chain of Matrix metalloproteinase-9 (Homo sapiens) (P14780 whole entry): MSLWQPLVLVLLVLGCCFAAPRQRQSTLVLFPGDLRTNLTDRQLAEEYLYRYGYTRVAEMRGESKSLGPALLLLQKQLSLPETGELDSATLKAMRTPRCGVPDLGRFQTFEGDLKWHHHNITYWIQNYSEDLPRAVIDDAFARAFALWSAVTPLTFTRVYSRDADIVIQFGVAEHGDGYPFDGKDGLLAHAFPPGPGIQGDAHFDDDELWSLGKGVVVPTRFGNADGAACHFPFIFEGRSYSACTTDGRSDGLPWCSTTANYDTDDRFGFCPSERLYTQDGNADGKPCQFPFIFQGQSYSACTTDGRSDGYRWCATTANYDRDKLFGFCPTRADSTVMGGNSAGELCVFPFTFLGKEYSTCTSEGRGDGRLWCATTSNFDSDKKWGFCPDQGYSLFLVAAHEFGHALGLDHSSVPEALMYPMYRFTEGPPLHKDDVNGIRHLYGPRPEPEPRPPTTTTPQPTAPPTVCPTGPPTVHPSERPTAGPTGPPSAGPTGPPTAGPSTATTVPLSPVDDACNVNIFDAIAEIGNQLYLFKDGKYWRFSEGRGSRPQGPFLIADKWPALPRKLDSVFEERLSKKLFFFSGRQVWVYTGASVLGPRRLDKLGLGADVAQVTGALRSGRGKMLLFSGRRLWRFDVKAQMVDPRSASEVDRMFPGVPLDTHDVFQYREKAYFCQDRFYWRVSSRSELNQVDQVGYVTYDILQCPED
In assay [10] the target is 72 kDa type IV collagenase (Homo sapiens) (UniProt P08253). In words: Inhibition of MMP2 activity in human MDA-MB-231 cells at 45 uM measured after 24 hrs by coomassie brilliant blue staining based gelatin zymographic method. Type of assay: cell-based.
For assay [11], the target named is Matrix metalloproteinase-9 (Homo sapiens) (UniProt P14780). In words: Inhibition of MMP9 activity in human MDA-MB-231 cells at 45 uM measured after 24 hrs by coomassie brilliant blue staining based gelatin zymographic method. The class given is cell-based.
Assay [12] deals with MDA-MB-231. Description: Down regulation of MMP2 expression in human MDA-MB-231 cells after 24 hrs by Western blot analysis. The class given is functional, cell-based. Background: A western blot detects proteins with antibodies after separation by electrophoresis.
Assay [13] deals with MDA-MB-231. Description: Down regulation of MMP9 expression in human MDA-MB-231 cells after 24 hrs by Western blot analysis. The class given is functional, cell-based.

Activity calls are given as the source filed them. The calls are words filed in the database; no cut-off is given here. Some results are limits rather than exact numbers.

In the case of `COC(=O)c1cc(OC)c2c(c1-c1c(C(=O)OC)cc(OC)c3c1OCO3)OCO2`, the outcome with MDA-MB-231 [1] was Active.
As a reminder, the IC50 is the concentration needed to halve the response being measured. Lower therefore signals higher potency. Usually inhibition stands for how much of the control response was suppressed. In the assay on MDA-MB-231 [2], `COc1cc2c(c3c1OCO3)-c1c(cc(OC)c3c1OCO3)CN(CCc1ccc3c(c1)OCO3)C2` returned an IC50 of 88 µM. In addition, the outcome in the assay with MDA-MB-231 [3] was Active. The Activity in the assay with MDA-MB-231 [4] was 32.9%; in the assay with MDA-MB-231 [5], 47.5%; in the assay with MDA-MB-231 [6], “<=54.4%”; in the assay on MDA-MB-231 [7] it was 71.2%; in the assay on MDA-MB-231 [12] it was “Dose-dependent effect”; in the assay on MDA-MB-231 [13], “Dose-dependent effect”. Also, the inhibition entry was “Dose-dependent effect” in [8], “Dose-dependent effect” in assay [9], 56.9% in assay [10] and 30.8% in assay [11].
